For one series, the target named is Aurora B (Homo sapiens, UniProt Q96GD4). The series is classed as biochemical. The following applies: for Ki: calculated from mean IC50 using the Cheng-Prusoff equation, read-out: AurB Ki; for AurB ligand efficiency (LE): from Ki.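 For all read-outs here: aurora B inhibition measured in a mobility shift assay, underlying mean IC50 taken from two independent duplicate runs at 8 compound concentrations.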
The next series deals with T1, PKCζ (Homo sapiens, UniProt Q05513).
T1 construct: purchased Perkin Elmer (ProfilerPro assay kit 1)
T1 sequence (Q05513 1-592): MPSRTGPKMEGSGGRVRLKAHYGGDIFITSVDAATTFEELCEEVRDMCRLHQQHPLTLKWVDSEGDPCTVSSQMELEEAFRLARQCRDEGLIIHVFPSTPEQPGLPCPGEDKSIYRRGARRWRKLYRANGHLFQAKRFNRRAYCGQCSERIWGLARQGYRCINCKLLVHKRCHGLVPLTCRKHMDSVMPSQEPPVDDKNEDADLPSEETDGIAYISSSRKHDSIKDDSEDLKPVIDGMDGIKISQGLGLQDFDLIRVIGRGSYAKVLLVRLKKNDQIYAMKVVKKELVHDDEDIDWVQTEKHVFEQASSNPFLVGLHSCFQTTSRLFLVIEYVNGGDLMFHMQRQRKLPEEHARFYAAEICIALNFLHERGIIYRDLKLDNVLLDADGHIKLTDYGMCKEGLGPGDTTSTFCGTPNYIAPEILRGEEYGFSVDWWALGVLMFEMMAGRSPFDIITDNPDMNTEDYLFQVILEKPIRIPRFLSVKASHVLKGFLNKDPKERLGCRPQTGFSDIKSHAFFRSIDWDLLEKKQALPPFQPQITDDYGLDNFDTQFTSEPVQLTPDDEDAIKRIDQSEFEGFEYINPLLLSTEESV
The series is described as follows: 26-kinase panel mobility shift assay, single concentration. The series is classed as biochemical. The note with it: read-out: % Inhibition PKC.

Series [1] in a line: Solubility as noted for the kinase panel screen. The series is classed as physicochemical. The note with it: reason for screening at 30 µM instead of 100 µM.

Aurora B, sequence (Q96GD4 whole entry): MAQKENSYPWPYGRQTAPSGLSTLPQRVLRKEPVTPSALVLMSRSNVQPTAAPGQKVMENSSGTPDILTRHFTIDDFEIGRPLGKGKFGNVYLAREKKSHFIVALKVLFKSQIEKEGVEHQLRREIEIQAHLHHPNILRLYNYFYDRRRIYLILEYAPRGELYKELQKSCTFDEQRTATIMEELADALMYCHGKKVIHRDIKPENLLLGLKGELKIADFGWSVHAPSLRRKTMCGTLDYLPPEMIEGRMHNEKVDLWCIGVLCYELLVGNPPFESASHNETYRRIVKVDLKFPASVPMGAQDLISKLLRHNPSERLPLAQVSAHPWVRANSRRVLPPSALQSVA
Procedure for Aurora B: IC50 values were obtained for an expanded version of the fragment library using the previously described mobility shift assay.[44] Subsequently, Ki values were estimated from IC50 values to allow better comparison of the activity against targets which were measured at different substrate concentrations (Supplementary data Table 1).
IC50 values for MPS1, Aurora A and Aurora B inhibition were determined as previously described,[44] and Ki values were estimated from the mean IC50 values using the Cheng-Prusoff equation.[48]
Kinase [ATP] (M) [Enzyme] (nM) [Peptide Substrate] (M) MgCl2 (mM)
For all compounds, IC50 values for MPS1, Aurora A, and Aurora B were determined
using MPS1 and Aurora A/B mobility shift assays as described previously.1 IC50
values were calculated from a four-parameter logistic fit of percentage inhibition
versus concentration (at 8 compound concentrations) using GraphPad Prism 5
(GraphPad Software, Inc., CA, USA). Mean IC50 values were determined from two
independent measurements each carried out in duplicate. Ki values were estimated
from the mean IC50 values using the Cheng-Prusoff equation.
Procedure for PKCζ: In order to test the biochemical activity of our fragment library, a panel of 26 structurally diverse protein kinases was used.
Mobility Shift Assay Protocol
Screening of 26 kinases using a mobility shift assay
A mobility shift assay to determine kinase inhibition was carried out using a
modified version of the ProfilerPro assay kit 1 (Perkin Elmer, Coventry, UK)
including MPS1 and Aurora B. Each kit contained an enzyme plate, a substrate
plate, reconstitution buffer, 1 M DTT, protease inhibitor cocktail and termination
buffer. Test compounds were added as a solution in DMSO.
final concentration. […] The
peptide phosphorylation assay was carried out as per the manufacturer’s
instructions. The electrophoretic separation and analysis of the phosphorylated
and non-phosphorylated peptides was carried out on a 4-sipper chip using a
LabChip EZReader II (Perkin Elmer). Results were expressed as % inhibition of
peptide phosphorylation relative to control wells for 0 % (no test compound) and
100 % (no ATP) inhibition. The percentage inhibition was calculated using the
% Inhibition = [1 - (% Conversion Sample / % Conversion 0% Inhibition Control)] x 100

Broadly, the Ki is a dissociation constant, usually derived from enzyme kinetics or from competition with a known ligand. As a reminder, the inhibition is the change of the read-out against control, counted positive when it falls. For the compound `Nc1ccc[nH]c1=O` [Compound 1, 3-aminopyridin-2-one], at Aurora B, the Ki is 160 µM and the “AurB ligand efficiency (LE)” value is 0.64. Moreover, the inhibition at 100 µM at PKCζ is 27%.
By melting point is commonly meant the temperature, or range, at which the solid turns liquid. The compound `Cn1cc(-c2c[nH]c(=O)c(N)c2)cn1` [Compound 2, 3-Amino-5-(1-methyl-1H-pyrazol-4-yl)pyridin-2(1H)-one] showed a melting point of 264 °C. In addition, on Aurora B, the Ki is 3.2 µM and the “AurB ligand efficiency (LE)” value was 0.53. Further, the inhibition at 100 µM at PKCζ turned out to be 83%.
Regarding `COc1ncc(-c2ccncc2)cc1N` [Compound 5, 6-Methoxy-3,4′-bipyridin-5-amine], on Aurora B, the Ki is 63.9 µM and the “AurB ligand efficiency (LE)” value was 0.38. At PKCζ, the inhibition at 100 µM is 5%.
On the same counts, the results for `Nc1cc(-c2ccnc3ccccc23)c[nH]c1=O` [Compound 6] are 41.7 µM, 0.33 and 17%.
The corresponding values for `CNc1nccc(-c2c[nH]c(=O)c(N)c2)n1` [Compound 7] are 15.1 µM, 0.41 and 37%.
The corresponding values for `Nc1cc(-c2ccnc(NC3CC3)n2)c[nH]c1=O` [Compound 8] are 12 µM, 0.37 and 0%.
With `Cc1nc(O)c(N)cc1-c1ccncc1` [Compound 15, 3-Amino-6-methyl-5-(pyridin-4-yl)pyridin-2-one], on Aurora B, the Ki was 25.7 µM and the “AurB ligand efficiency (LE)” value is listed as 0.42. Also, the inhibition at 100 µM at PKCζ is 13%.
As for `O=C(Nc1cc(-c2ccncc2)c[nH]c1=O)c1ccccc1` [Compound 16, N-(2-Oxo-5-(pyridin-4-yl)-1,2-dihydropyridin-3-yl)benzamide], at Aurora B, the inhibitory constant (Ki) is 41 µM and the “AurB ligand efficiency (LE)” value was 0.27. In addition, the inhibition at 30 µM at PKCζ came to 0%. In addition, in series [1], the “solubility (in words)” value is recorded as “poor solubility”.
As to `CN1CCN(c2ccc(C(=O)Nc3cc(-c4ccncc4)c[nH]c3=O)cc2)CC1` [Compound 22], at Aurora B, the Ki is 5.5 µM and the “AurB ligand efficiency (LE)” value was 0.25. Further, the inhibition at 30 µM at PKCζ is 24%. Further, the “solubility (in words)” value in series [1] is recorded as “poor solubility”.
The corresponding values for `O=C(Nc1cc(-c2ccnc(NC3CC3)n2)c[nH]c1=O)c1ccccc1` [Compound 24] are 3.6 µM, 0.28, 0% and “poor solubility”.

Values taken from publication PMC6008489 (Bioorganic & Medicinal Chemistry, 2018).
